What all share (type): cell-based
Assay [1] relates to S. aureus NB01006-AVR005, gyrA (S84L), grlA (580F) and grlB (E471K). Description: microbe, parasite or virus in culture. The settings on record: Staphylococcus aureus, 20 h, read-out: Antibacterial activity (MIC) NB01006-AVR005. The method, boiled down:
(§1)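 MIC in μg/mL taken as the lowest concentration with no visible growth, checked by 600 nm reading after 20 h at 35°C, ambient air. Strains tested per CLSI microdilution in cation-adjusted Mueller-Hinton broth at about 5×10^5 CFU/mL, compounds as two-fold series, 1% DMSO final.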

In assay [2] the test system is P. aeruginosa NB52019, wild-type PAO1 strain. Kind of assay: MIC by broth microdilution, P. aeruginosa NB52019. The settings on record: Pseudomonas aeruginosa, CAMHB, 35° C., 20 hours, read-out: Antibacterial activity (MIC) NB52019. The essentials:
as §1
For orientation: Dilution methods test growth across graded concentrations, often in twofold steps.

For assay [3], the system named is S. aureus ATCC 49951 (NB01006). Kind of assay: MIC by broth microdilution, S. aureus NB01006. To be noted: Staphylococcus aureus, ATCC49951, CAMHB, 35° C., 20 hours, read-out: Antibacterial activity (MIC) NB01006. The essentials: as §1
In assay [4] the test system is E. faecalis ATCC 29212 (NB04001). Description: MIC by broth microdilution, E. faecalis NB04001. To be noted: Enterococcus faecalis, ATCC29212, CAMHB, 35° C., 20 hours, read-out: Antibacterial activity (MIC) NB04001. The method, boiled down: as §1
For assay [5], the system named is E. coli ATCC 25922 (NB27001). Kind of assay: MIC by broth microdilution, E. coli NB27001. To be noted: Escherichia coli, ATCC25922, CAMHB, 35° C., 20 hours, read-out: Antibacterial activity (MIC) NB27001. The essentials: as §1
Assay [6] concerns S. aureus NB01080 fluoroquinolone-resistant clinical isolate. Description: MIC by broth microdilution, S. aureus NB01080. To be noted: Staphylococcus aureus, CAMHB, 35° C., 20 hours, read-out: Antibacterial activity (MIC) NB01080. The essentials: as §1
For assay [7], the system named is S. pneumoniae ATCC 25922 (NB07001). Kind of assay: MIC by broth microdilution, S. pneumoniae NB07001. To be noted: Streptococcus pneumoniae, ATCC25922, 20 h, read-out: Antibacterial activity (MIC) NB07001. The method, boiled down:
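CLSI broth microdilution in CAMHB, inoculum ~5×10^5 CFU/mL, two-fold compound dilutions at 1% final DMSO. Plates incubated 20 h at 35°C in ambient air; MIC (μg/mL) is the lowest concentration preventing visible growth, confirmed by OD600.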

Values after ≈ are worked out from the molar mass of the structure shown.

For the compound `C[C@H]1COc2c(N3CCC(C)(CN)C3)c(F)cc3cc(C(=O)O)c(=O)n1c23` (stereo partly drawn) [Example 1.26, (3S)-10-(3-(aminomethyl)-3-methylpyrrolidin-1-yl)-9-fluoro-3-methyl-5-oxo-2,3-dihydro-5H-[1,4]oxazino[2,3,4-ij]quinoline-6-carboxylic acid], the MIC in assay [1] was over 32 µg/mL; in assay [2] it was over 32 µg/mL; in assay [3], 1 to 32 µg/mL (≈ 2.66 to 85.2 µM); in assay [4], 1 to 32 µg/mL (≈ 2.66 to 85.2 µM); in assay [5] it was 1 to 32 µg/mL (≈ 2.66 to 85.2 µM); in assay [6] it was 1 to 32 µg/mL (≈ 2.66 to 85.2 µM). The MIC in assay [7] is 1 to 32 µg/mL (≈ 2.66 to 85.2 µM).
Turning to `C[C@H]1COc2c(N3CC[C@@H](C4(N(C)C)CC4)C3)c(F)cc3cc(C(=O)O)c(=O)n1c23` [Example 1.27, (S)-10-((R)-3-(1-(dimethylamino)cyclopropyl)pyrrolidin-1-yl)-9-fluoro-3-methyl-5-oxo-2,3-dihydro-5H-[1,4]oxazino[2,3,4-ij]quinoline-6-carboxylic acid], the MIC is over 32 µg/mL in assay [1]; over 32 µg/mL in assay [2]; 1 to 32 µg/mL (≈ 2.41 to 77 µM) in assay [3]; 1 to 32 µg/mL (≈ 2.41 to 77 µM) in assay [4]; 1 to 32 µg/mL (≈ 2.41 to 77 µM) in assay [5]; 1 to 32 µg/mL (≈ 2.41 to 77 µM) in assay [6]. For the same compound, the MIC in assay [7] was under 1 µg/mL.
For `C[C@H]1COc2c(N3CCC4(CC3)CC(N)C4)c(F)cc3cc(C(=O)O)c(=O)n1c23` [Example 1.30, (S)-10-(2-amino-7-azaspiro[3.5]nonan-7-yl)-9-fluoro-3-methyl-5-oxo-2,3-dihydro-5H-[1,4]oxazino[2,3,4-ij]quinoline-6-carboxylic acid], the MIC is over 32 µg/mL in assay [1]; over 32 µg/mL in assay [2]; 1 to 32 µg/mL (≈ 2.49 to 79.7 µM) in assay [3]; 1 to 32 µg/mL (≈ 2.49 to 79.7 µM) in assay [4]; over 32 µg/mL in assay [5]; over 32 µg/mL in assay [6]. Further, in assay [7], the MIC fell in the range of 1 to 32 µg/mL (≈ 2.49 to 79.7 µM).
`C[C@H]1COc2c(N3Cc4cncnc4C3)c(F)cc3cc(C(=O)O)c(=O)n1c23` [Example 1.31, (S)-10-(5,7-dihydro-6H-pyrrolo[3,4-d]pyrimidin-6-yl)-9-fluoro-3-methyl-5-oxo-2,3-dihydro-5H-[1,4]oxazino[2,3,4-ij]quinoline-6-carboxylic acid]: the MIC is over 32 µg/mL in assay [1]; over 32 µg/mL in assay [2]; under 1 µg/mL in assay [3]; 1 to 32 µg/mL (≈ 2.62 to 83.7 µM) in assay [4]; 1 to 32 µg/mL (≈ 2.62 to 83.7 µM) in assay [5]; 1 to 32 µg/mL (≈ 2.62 to 83.7 µM) in assay [6]. Further, the MIC in assay [7] was under 1 µg/mL.
As for `C[C@H]1COc2c(N3CC[C@@H](C(C)(C)O)C3)c(F)cc3cc(C(=O)O)c(=O)n1c23` [Example 1.34, (S)-9-fluoro-10-((R)-3-(2-hydroxypropan-2-yl)pyrrolidin-1-yl)-3-methyl-5-oxo-2,3-dihydro-5H-[1,4]oxazino[2,3,4-ij]quinoline-6-carboxylic acid], the MIC in assay [1] is over 32 µg/mL; in assay [2], over 32 µg/mL; in assay [3], 1 to 32 µg/mL (≈ 2.56 to 82 µM); in assay [4], over 32 µg/mL; in assay [5] it was over 32 µg/mL; in assay [6], over 32 µg/mL. Also, in assay [7], the MIC was over 32 µg/mL.
`C[C@H]1COc2c(N3CC[C@H](C4(N)CC4)C3)c(F)cc3cc(C(=O)O)c(=O)n1c23` [Example 1.35, (S)-10-((S)-3-(1-aminocyclopropyl)pyrrolidin-1-yl)-9-fluoro-3-methyl-5-oxo-2,3-dihydro-5H-[1,4]oxazino[2,3,4-ij]quinoline-6-carboxylic acid]: the MIC was over 32 µg/mL in assay [1]; over 32 µg/mL in assay [2]; 1 to 32 µg/mL (≈ 2.58 to 82.6 µM) in assay [3]; 1 to 32 µg/mL (≈ 2.58 to 82.6 µM) in assay [4]; 1 to 32 µg/mL (≈ 2.58 to 82.6 µM) in assay [5]; 1 to 32 µg/mL (≈ 2.58 to 82.6 µM) in assay [6]. Also, the MIC in assay [7] was in the range of 1 to 32 µg/mL (≈ 2.58 to 82.6 µM).
Turning to `CN[C@@H](C)[C@@H]1CCN(c2c(F)cc3cc(C(=O)O)c(=O)n4c3c2OC[C@@H]4C)C1` [Example 1.36, (S)-9-fluoro-3-methyl-10-((R)-3-((S)-1-(methylamino)ethyl)pyrrolidin-1-yl)-5-oxo-2,3-dihydro-5H-[1,4]oxazino[2,3,4-ij]quinoline-6-carboxylic acid], the MIC in assay [1] is 1 to 32 µg/mL (≈ 2.57 to 82.2 µM); in assay [2], over 32 µg/mL; in assay [3], under 1 µg/mL; in assay [4] it was under 1 µg/mL; in assay [5] it was 1 to 32 µg/mL (≈ 2.57 to 82.2 µM); in assay [6] it was under 1 µg/mL. Also, the MIC in assay [7] was under 1 µg/mL.
In the case of `C[C@H]1COc2c(N3CC4CNCC4C3)c(F)cc3cc(C(=O)O)c(=O)n1c23` (stereo partly drawn) [Example 1.37, (3S)-9-fluoro-10-(hexahydropyrrolo[3,4-c]pyrrol-2(1H)-yl)-3-methyl-5-oxo-2,3-dihydro-5H-[1,4]oxazino[2,3,4-ij]quinoline-6-carboxylic acid], the MIC in assay [1], in assay [2], in assay [3], in assay [4], in assay [5] and in assay [6] was over 32 µg/mL throughout. For the same compound, the MIC in assay [7] was over 32 µg/mL.
For `CO/N=C1\CN(c2c(F)cc3cc(C(=O)O)c(=O)n4c3c2OC[C@@H]4C)CC1CN` (stereo partly drawn) [Example 1.40, (3S)-10-((Z)-3-(aminomethyl)-4-(methoxyimino)pyrrolidin-1-yl)-9-fluoro-3-methyl-5-oxo-2,3-dihydro-5H-[1,4]oxazino[2,3,4-ij]quinoline-6-carboxylic acid], the MIC in assay [1] is 1 to 32 µg/mL (≈ 2.47 to 79.1 µM); in assay [2] it was over 32 µg/mL; in assay [3], 1 to 32 µg/mL (≈ 2.47 to 79.1 µM); in assay [4] it was 1 to 32 µg/mL (≈ 2.47 to 79.1 µM); in assay [5], 1 to 32 µg/mL (≈ 2.47 to 79.1 µM); in assay [6], 1 to 32 µg/mL (≈ 2.47 to 79.1 µM). Further, in assay [7], the MIC was under 1 µg/mL.
In the case of `CNC[C@@H]1CCN(c2c(F)cc3cc(C(=O)O)c(=O)n4c3c2OC[C@@H]4C)C1` [Example 1.41, (S)-9-fluoro-3-methyl-10-((S)-3-((methylamino)methyl)pyrrolidin-1-yl)-5-oxo-2,3-dihydro-5H-[1,4]oxazino[2,3,4-ij]quinoline-6-carboxylic acid], the MIC in assay [1] is 1 to 32 µg/mL (≈ 2.66 to 85.2 µM); in assay [2], over 32 µg/mL; in assay [3], under 1 µg/mL; in assay [4] it was 1 to 32 µg/mL (≈ 2.66 to 85.2 µM); in assay [5], 1 to 32 µg/mL (≈ 2.66 to 85.2 µM); in assay [6], 1 to 32 µg/mL (≈ 2.66 to 85.2 µM). Moreover, in assay [7], the MIC was under 1 µg/mL.
For `CC(O)C1(F)CCN(c2c(F)cc3cc(C(=O)O)c(=O)n4c3c2OC[C@@H]4C)C1` (stereo partly drawn) [Example 1.44, (3S)-9-fluoro-10-(3-fluoro-3-(1-hydroxyethyl)pyrrolidin-1-yl)-3-methyl-5-oxo-2,3-dihydro-5H-[1,4]oxazino[2,3,4-ij]quinoline-6-carboxylic acid], the MIC in assay [1] was over 32 µg/mL; in assay [2], over 32 µg/mL; in assay [3] it was under 1 µg/mL; in assay [4], 1 to 32 µg/mL (≈ 2.54 to 81.1 µM); in assay [5], 1 to 32 µg/mL (≈ 2.54 to 81.1 µM); in assay [6] it was over 32 µg/mL. Further, in assay [7], the MIC fell in the range of 1 to 32 µg/mL (≈ 2.54 to 81.1 µM).
`C[C@H]1COc2c(N3C[C@H]4[C@@H](C3)S(=O)(=O)C[C@@H]4N)c(F)cc3cc(C(=O)O)c(=O)n1c23` [Example 1.51, (S)-10-((3R,3aR,6aS)-3-amino-1,1-dioxidohexahydro-5H-thieno[2,3-c]pyrrol-5-yl)-9-fluoro-3-methyl-5-oxo-2,3-dihydro-5H-[1,4]oxazino[2,3,4-ij]quinoline-6-carboxylic acid]: the MIC in assay [1], in assay [2], in assay [3], in assay [4], in assay [5] and in assay [6] was over 32 µg/mL in each case. Moreover, the MIC in assay [7] is over 32 µg/mL.
As to `C[C@H]1COc2c(N3CC[C@@H]([C@@H](N)C4CC4)C3)c(F)cc3cc(C(=O)O)c(=O)n1c23` [Example 1.52, (S)-10-((R)-3-((S)-amino(cyclopropyl)methyl)pyrrolidin-1-yl)-9-fluoro-3-methyl-5-oxo-2,3-dihydro-5H-[1,4]oxazino[2,3,4-ij]quinoline-6-carboxylic acid], the MIC in assay [1] is 1 to 32 µg/mL (≈ 2.49 to 79.7 µM); in assay [2], over 32 µg/mL; in assay [3], under 1 µg/mL; in assay [4], under 1 µg/mL; in assay [5], under 1 µg/mL; in assay [6], under 1 µg/mL. The MIC in assay [7] was under 1 µg/mL.
For `C[C@H]1COc2c(N3CC[C@@H]([C@@H](N)C(F)F)C3)c(F)cc3cc(C(=O)O)c(=O)n1c23` [Example 1.53, (S)-10-((R)-3-((R)-1-amino-2,2-difluoroethyl)pyrrolidin-1-yl)-9-fluoro-3-methyl-5-oxo-2,3-dihydro-5H-[1,4]oxazino[2,3,4-ij]quinoline-6-carboxylic acid], the MIC in assay [1] was 1 to 32 µg/mL (≈ 2.43 to 77.8 µM); in assay [2] it was over 32 µg/mL; in assay [3], under 1 µg/mL; in assay [4] it was under 1 µg/mL; in assay [5], 1 to 32 µg/mL (≈ 2.43 to 77.8 µM); in assay [6], under 1 µg/mL. Besides, in assay [7], the MIC was under 1 µg/mL.

For the origin of these results see patent US20180318311A1, “TRICYCLIC 2-QUINOLINONES AS ANTIBACTERIALS” (priority 2017, published 2018).
